These results are taken from US20230099567A1, “COMPOSITION FOR TREATMENT, PREVENTION, OR AMELIORATION OF LYMPHEDEMA” (RAPPELER CO., LTD., priority 2020, published 2023).

≈ marks a conversion by molar mass, not a printed value.

The subject of data set [1] is LPS-induced TNFα production in mouse peritoneal macrophages. Kind of data set: LPS-induced TNFα production in mouse peritoneal macrophages (ELISA). The data set is classed as cell-based. The note with it: for IC50: Mus musculus, Peritoneal macrophage, 24 h, 100 ng/ml LPS 24 h, measured twice, mean ± standard deviation, read-out: IC50, dose-dependent inhibition of TNFα production in macrophages; for IC50 / TNFα production inhibitory ability compared with butein (FIG. 1): mouse peritoneal macrophages; for IC50 value compared with positive control butein: TNFα production in macrophages; for TNFα production inhibitory ability compared with butein (FIG. 1): compound 20 μM, LPS-induced. As for the experimental part:
To isolate peritoneal macrophages, male Balb/c mice were intraperitoneally injected with 2 ml of 3.5% sterile thioglycolate (B D, Sparks, Md., USA) 4 days before being sacrificed. Mice were sacrificed by cervical dislocation, and peritoneal secretory cells were aseptically isolated through peritoneal washing with cold DMEM (HyClone, Logan, Utah, USA) containing 10% FBS (fetal bovine serum; HyClone) and 1% penicillin-streptomycin. After centrifugation, cells were resuspended and counted using a TC20 Cell Counter (Bio-Rad Laboratories, Hercules, Calif., USA). Peritoneal secretory cells were left in a 24-well plate overnight at 37° C., and non-adherent cells were removed. The cells were then stimulated with 100 ng/ml lipopolysaccharide (LPS) for 24 hours. The supernatant was collected during cytokine analysis, and the level of TNFα in the supernatant was measured using BD OptEIA mouse ELISA sets (BD Biosciences, San Diego, Calif., USA) according to the manufacturer's protocol. […] IC50 (μM) values were measured twice, respectively, and expressed as mean±standard deviation.

Data set [2] in a line: Physicochemical properties (pKa, logP, solubility). An excerpt:
Compound 1 is butein and the therapeutic effect on lymphedema thereof is disclosed in Korean Patent Publication No. 10-1533197 (published on Jul. 2, 2015).

Data set [3] relates to lymphedema induced in mice. The experiment in a line: Prophylactic effect on lymphedema formation, surgically induced murine lymphedema model (volume). The note with it: 7th day after surgery, oral administration 7 days before surgery, then once every two days, vs control group. The data set is classed as in vivo, mouse. As for the experimental part:
All animal tests in the following examples were performed after obtaining approvals by the Institutional Animal Care and Use Committee (IACUC) of Sungkyunkwan University School of Medicine (Approval No.: […]-20150037). All methods were performed according to the approved guidelines. […] Briefly, major lymphatic sites including inguinal lymph nodes, popliteal lymph nodes, deep inguinal lymph nodes and femoral lymphatic vessels were removed, and the lower right leg of the mouse was limitedly cauterized under anesthesia.
Compounds 1, 7m, and 14a were each orally administered to mice for 7 days before surgical induction of lymphedema in mice.
On the other hand, in the control group, the compound 1 treatment group, the compound 7m treatment group, and the compound 14a treatment group, lymphedema was induced through surgery. After surgery, the compounds were administered once every two days.
The volume of lymphedema was measured on the 7th day after surgery, and the size of the lymphedema was recorded using a caliper ruler by a person who was blinded to the treatment status of the mice.

Compound `COc1ccc(/C=C/C(=O)c2ccc(O)cc2O)cc1O` [7b, (E)-1-(2,4-dihydroxyphenyl)-3-(3-hydroxy-4-methoxyphenyl)prop-2-en-1-one] yielded a melting point of 206.4 °C.

As to `O=C(/C=C/c1ccc(F)c(O)c1)c1ccc(O)cc1O` [7d, (E)-1-(2,4-dihydroxyphenyl)-3-(4-fluoro-3-hydroxyphenyl)prop-2-en-1-one], the melting point came out at 252.4 °C.

The compound `O=C(/C=C/c1ccc(O)c(O)c1)c1ccc(O)cc1F` [7g, (E)-3-(3,4-dihydroxyphenyl)-1-(2-fluoro-4-hydroxyphenyl)prop-2-en-1-one] registered a melting point of 207.8 °C.

For `CC(C)Oc1cc(O)ccc1C(=O)/C=C/c1ccc(O)c(O)c1` [7j, (E)-3-(3,4-dihydroxyphenyl)-1-(4-hydroxy-2-isopropoxyphenyl)prop-2-en-1-one], the melting point was 80.4 °C.

`COc1ccc(C(=O)/C=C/c2ccc(O)c(O)c2)c(OC)c1` [7k, (E)-3-(3,4-dihydroxyphenyl)-1-(2,4-dimethoxyphenyl)prop-2-en-1-one] had a melting point of 162.9 °C.

The compound `Cc1cc(O)ccc1C(=O)/C=C/c1ccc(O)c(O)c1` [compound 7h, (E)-3-(3,4-dihydroxyphenyl)-1-(4-hydroxy-2-methylphenyl)prop-2-en-1-one] registered a melting point of 208.2 °C. The IC50 in data set [1] came out at 48.4 ± 2.35 µM.

The compound `Cc1ccc(C(=O)/C=C/c2ccc(O)c(O)c2)cc1` [compound 7l, (E)-3-(3,4-dihydroxyphenyl)-1-(p-tolyl)prop-2-en-1-one] registered a melting point of 190.9 °C. In data set [1], the IC50 is 18.6 ± 1.5 µM and the “IC50 value compared with positive control butein” value was “significantly superior IC50 values compared to butein”.

In the case of `O=C(/C=C/c1ccc(O)c(O)c1)c1ccc(Cl)cc1` [compound 7m, (E)-1-(4-chlorophenyl)-3-(3,4-dihydroxyphenyl)prop-2-en-1-one], in data set [1], the IC50 was 17.3 ± 2.11 µM and the “IC50 value compared with positive control butein” value was “significantly superior IC50 values compared to butein”. Also, the “logP (partition coefficient)” value in data set [2] amounted to 3.77. The solubility in data set [2] (water solubility, read-out: Solubility) stood at 28 µg/mL (≈ 102 µM). Also, the “volume of lymphedema reduced by” value in data set [3] came to 53%.

`CC(=O)Oc1ccc(C(=O)/C=C/c2ccc(OC(C)=O)c(OC(C)=O)c2)c(OC(C)=O)c1` [compound 8a, (E)-4-(3-(2,4-diacetoxyphenyl)-3-oxoprop-1-en-1-yl)-1,2-phenylene diacetate] returned a melting point of 131.3 °C. In data set [1], the IC50 stood at 12.8 ± 1.24 µM, the “IC50 value compared with positive control butein” value is reported as “significantly superior IC50 values compared to butein” and the “TNFα production inhibitory ability compared with butein (FIG. 1)” value is “significantly better TNFα production inhibitory ability than the positive control butein treatment group”.

For `O=C(Oc1ccc(C(=O)/C=C/c2ccc(OC(=O)c3ccccc3)c(OC(=O)c3ccccc3)c2)c(OC(=O)c2ccccc2)c1)c1ccccc1` [compound 8b, (E)-4-(3-(2,4-bis(benzoyloxy)phenyl)-3-oxoprop-1-en-1-yl)-1,2-phenylene dibenzoate], the melting point worked out at 36.7 °C. Besides, the “TNFα production inhibitory ability compared with butein (FIG. 1)” value in data set [1] is recorded as “significantly better TNFα production inhibitory ability than the positive control butein treatment group”.

Regarding `Cc1ccc(C(=O)Oc2cc(O)ccc2C(=O)/C=C/c2ccc(O)c(O)c2)cc1` [compound 14b, (E)-2-(3-(3,4-dihydroxyphenyl)acryloyl)-5-hydroxyphenyl 4-methylbenzoate], the melting point was determined as 185.7 °C. Moreover, in data set [1], the IC50 is 18.9 ± 1.15 µM.

In the case of `COc1ccc(C(=O)Oc2cc(O)ccc2C(=O)/C=C/c2ccc(O)c(O)c2)cc1` [compound 14c, (E)-2-(3-(3,4-dihydroxyphenyl)acryloyl)-5-hydroxyphenyl 4-methoxybenzoate], the melting point is 161.1 °C. Besides, in data set [1], the IC50 was determined as 20.8 ± 1.62 µM.

For `O=C(Oc1cc(O)ccc1C(=O)/C=C/c1ccc(O)c(O)c1)c1ccc(Cl)cc1` [compound 14d], the melting point amounted to 102.8 °C.

By melting point is commonly meant the temperature, or range, at which the solid turns liquid. As a reminder, the IC50 is the concentration at which inhibition is half-maximal. Usually solubility stands for the concentration that dissolves in the medium under given conditions.
